The source made the active and inactive calls. The calls are words filed in the database; no cut-off is given here.
Columns and labels:
P388 [1] = assay: Cytotoxicity against mouse P388 cells at 10 ug/mL after 72 hrs; type: functional; details: P388, 72 h
[2] = (§1) Cytoprotective effect on HMEC1 cells assessed as cell viability at 10 uM after 24 hrs by MTT assay; type: functional; details: Homo sapiens, HMEC-1, 24 h, read-out: Activity
Plasmodium falciparum [3] = assay: Antiplasmodial activity against Plasmodium falciparum FCM29 at 10 ug/mL as [3H]hypoxanthine uptake; type: functional
HMEC-1 [4] = assay: Effect on HMEC1 cells-mediated LDL oxidation at 100 uM after 6 hrs by TBARS assay; type: functional, cell-based; details: Homo sapiens
Plasmodium falciparum [5] = assay: Antiplasmodial activity against Plasmodium falciparum FCM29 by [3H]hypoxanthine uptake; type: functional, organism-based
[6] = (§2) Cytoprotective effect on HMEC1 cells assessed as cell viability by MTT assay; type: functional, Homo sapiens, HMEC-1
HMEC-1 [7] = assay: Effect on HMEC1 cells-mediated LDL oxidation at 10 uM after 6 hrs by TBARS assay; type: functional, Homo sapiens
HMEC-1 [8] = assay: as §2; type: functional; details: Homo sapiens
HMEC-1 [9] = assay: as §1; type: functional; details: Homo sapiens
P388 [10] = assay: Cytotoxicity against mouse P388 cells after 72 hrs; type: functional, cell-based; details: P388, 72 h

| Molecule | inhibition at 10 µg/mL (P388 [1]) | viability at 10 µM [2] | inhibition at 10 µg/mL (Plasmodium falciparum [3]) | Activity (HMEC-1 [4]) | IC50 (Plasmodium falciparum [5]) | Activity [6] | Activity (HMEC-1 [7]) | Activity (HMEC-1 [8]) | Activity (HMEC-1 [7]; Homo sapiens) | Activity (HMEC-1 [9]) | IC50 (P388 [10]) |
| --- | --- | --- | --- | --- | --- | --- | --- | --- | --- | --- | --- |
| COC(=O)/C=C/c1cc(OC)c2c(c1)C(CO)C(c1ccc(O)c(OC)c1)O2 (stereo not drawn) | 8.63% | 40% | 25.7% | Active | – | – | – | – | – | – | – |
| COC(=O)/C=C/c1cc(OC)c2c(c1)C(COC(=O)c1cc(O)c(O)c(O)c1)C(c1ccc(O)c(OC)c1)O2 (stereo not drawn) | 16.4% | 40% | 93.7% | – | 798 nM | 59.9% | 2.2% | – | – | – | – |
| COC(=O)/C=C/c1ccc(O/C(=C\c2ccc(O)c(OC)c2)C(=O)OC)c(OC)c1 | 0% | 40% | 23.8% | – | – | – | – | Active | Active | – | – |
| VITAMIN E | – | – | – | – | – | – | – | 29% | 55% | 40% | – |
| CC(C)(Sc1cc(C(C)(C)C)c(O)c(C(C)(C)C)c1)Sc1cc(C(C)(C)C)c(O)c(C(C)(C)C)c1 [PROBUCOL] | – | 55% | – | – | – | 92% | 10% | – | – | – | – |
| CC[C@@]1(O)C(=O)OCc2c1cc1n(c2=O)Cc2cc3ccccc3nc2-1 [CAMPTOTHECIN] | – | – | – | – | – | – | – | – | – | – | 32.1 nM |
| COC(=O)/C=C/c1cc(OC)c2c(c1)C(C(=O)OC)C(c1ccc(O)c(OC)c1)O2 (stereo not drawn) | 85.2% | 40% | 0% | – | – | – | – | Active | Active | – | 772 nM |

— ChEMBL document CHEMBL1149667, “Synthesis of ferulic ester dimers, functionalisation and biological evaluation as potential antiatherogenic and antiplasmodial agents” (Bioorg Med Chem, 2007)
